Laboratory results published in PubChem BioAssay (NCI).
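All cell lines were grown in 96-well plates and treated with compound for 48 hours. Definition used: TGI = concentration required for complete inhibition of growth.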

Assays:
Experiment in all cases: NCI tumour cell line growth inhibition, 48 h
[1] = system: SF-268 CNS
[2] = system: UACC-257 melanoma
[3] = system: MDA-MB-231 breast
[4] = system: HCT-15 colon
[5] = system: HL-60(TB) leukemia
[6] = system: MCF7 breast
[7] = system: SK-MEL-28 melanoma
[8] = system: NCI-H460 lung
[9] = system: CCRF-CEM leukemia
[10] = system: K-562 leukemia
[11] = system: SF-295 CNS
[12] = system: T-47D breast
[13] = system: EKVX NSCLC
[14] = system: UO-31 renal
[15] = system: MDA-N
[16] = system: SK-MEL-5 melanoma
[17] = system: KM12 colon
[18] = system: OVCAR-5 ovarian
[19] = system: MDA-MB-435
[20] = system: UACC-62 melanoma
[21] = system: TK-10 renal
[22] = system: BT-549 breast
[23] = system: SNB-19 CNS
[24] = system: OVCAR-4 ovarian
[25] = system: NCI-H522 lung
[26] = system: MOLT-4 leukemia
[27] = system: HS 578T breast
[28] = system: HCT-116 colon
[29] = system: SK-OV-3 ovarian
[30] = system: OVCAR-3 ovarian
[31] = system: DU-145 prostate
[32] = system: IGROV1 ovarian
[33] = system: HOP-92 NSCLC
[34] = system: HT29 colon
[35] = system: CAKI-1 renal
[36] = system: NCI-H23 lung
[37] = system: SF-539 CNS
[38] = system: SW-620 colon
[39] = system: SR leukemia
[40] = system: PC-3 prostate
[41] = system: ACHN renal
[42] = system: COLO 205 colon
[43] = system: NCI/ADR-RES ovarian
[44] = system: MALME-3M melanoma
[45] = system: HOP-62 NSCLC
[46] = system: M14 melanoma
[47] = system: SK-MEL-2 melanoma
[48] = system: A549 NSCLC
[49] = system: RPMI-8226 leukemia
[50] = system: OVCAR-8 ovarian
[51] = system: SN12C renal
[52] = system: SNB-75 CNS
[53] = system: U251 CNS
[54] = system: NCI-H226 lung
[55] = system: 786-0 renal
[56] = system: RXF 393 renal
[57] = system: HCC-2998 colon
[58] = system: LOX IMVI melanoma
[59] = system: A498 renal

SMILES: CC(=O)Oc1ccc2c(c1OC(C)=O)CCC1C2=CC[C@]2(C)C(=O)CCC12 (stereo partly drawn)
- TGI [1]: 27.9 µM
- TGI [2]: 68.8 µM
- TGI [3]: 28.3 µM
- TGI [4]: 23.5 µM
- TGI [5]: 27.5 µM
- TGI [6]: 31.2 µM
- TGI [7]: 21.3 µM
- TGI [8]: 40.3 µM
- TGI [9]: 12.9 µM
- TGI [10]: 39.5 µM
- TGI [11]: 29.7 µM
- TGI [12]: 37.6 µM
- TGI [13]: 30.1 µM
- TGI [14]: 21.7 µM
- TGI [15]: 33.4 µM
- TGI [16]: 1.55 µM
- TGI [17]: 33.3 µM
- TGI [18]: 30.3 µM
- TGI [19]: 18.2 µM
- TGI [20]: 25.5 µM
- TGI [21]: 27.7 µM
- TGI [22]: 30.7 µM
- TGI [23]: 32.8 µM
- TGI [24]: 15.9 µM
- TGI [25]: 5.01 µM
- TGI [26]: 19.4 µM
- TGI [27]: 62.5 µM
- TGI [28]: 18.5 µM
- TGI [29]: 87.4 µM
- TGI [30]: 6.2 µM
- TGI [31]: 30.1 µM
- TGI [32]: 18.8 µM
- TGI [33]: 22.4 µM
- TGI [34]: 32.9 µM
- TGI [35]: 19 µM
- TGI [36]: 46.9 µM
- TGI [37]: 29.1 µM
- TGI [38]: 14.5 µM
- TGI [39]: 32.9 µM
- TGI [40]: 17.3 µM
- TGI [41]: 24.3 µM
- TGI [42]: 27.7 µM
- TGI [43]: > 100 µM
- TGI [44]: 28.6 µM
- TGI [45]: 53.7 µM
- TGI [46]: 26.1 µM
- TGI [47]: 29.5 µM
- TGI [48]: 33.7 µM
- TGI [49]: 8.41 µM
- TGI [50]: 27.7 µM
- TGI [51]: 28.1 µM

SMILES: CC(NC(=O)C(CC(=O)OCc1ccccc1)NC(=O)OCc1ccccc1)c1ccccc1 (stereo not drawn)
- TGI [1]: > 100 µM
- TGI [3]: > 100 µM
- TGI [4]: > 100 µM
- TGI [6]: > 100 µM
- TGI [7]: > 100 µM
- TGI [8]: > 100 µM
- TGI [10]: > 100 µM
- TGI [11]: > 100 µM
- TGI [12]: > 100 µM
- TGI [13]: > 100 µM
- TGI [14]: > 100 µM
- TGI [15]: > 100 µM
- TGI [16]: > 100 µM
- TGI [17]: > 100 µM
- TGI [52]: > 100 µM
- TGI [18]: > 100 µM
- TGI [19]: > 100 µM
- TGI [20]: > 100 µM
- TGI [21]: > 100 µM
- TGI [22]: > 100 µM
- TGI [53]: > 100 µM
- TGI [23]: > 100 µM
- TGI [25]: > 100 µM
- TGI [54]: > 100 µM
- TGI [26]: > 100 µM
- TGI [27]: > 100 µM
- TGI [29]: > 100 µM
- TGI [30]: > 100 µM
- TGI [31]: > 100 µM
- TGI [32]: > 100 µM
- TGI [34]: > 100 µM
- TGI [55]: > 100 µM
- TGI [35]: > 100 µM
- TGI [36]: > 100 µM
- TGI [37]: > 100 µM
- TGI [38]: > 100 µM
- TGI [39]: > 100 µM
- TGI [40]: > 100 µM
- TGI [41]: > 100 µM
- TGI [42]: > 100 µM
- TGI [43]: > 100 µM
- TGI [44]: > 100 µM
- TGI [45]: > 100 µM
- TGI [46]: > 100 µM
- TGI [47]: > 100 µM
- TGI [48]: > 100 µM
- TGI [49]: > 100 µM
- TGI [56]: > 100 µM
- TGI [57]: > 100 µM
- TGI [50]: > 100 µM
- TGI [51]: > 100 µM

SMILES: C=C(Br)CN(C)CC(=C)Br
- TGI [1]: > 100 µM
- TGI [2]: > 100 µM
- TGI [3]: > 100 µM
- TGI [4]: > 100 µM
- TGI [5]: > 100 µM
- TGI [6]: > 100 µM
- TGI [7]: > 100 µM
- TGI [8]: > 100 µM
- TGI [9]: > 100 µM
- TGI [10]: > 100 µM
- TGI [11]: > 100 µM
- TGI [12]: > 100 µM
- TGI [13]: > 100 µM
- TGI [14]: > 100 µM
- TGI [15]: > 100 µM
- TGI [16]: > 100 µM
- TGI [17]: > 100 µM
- TGI [52]: > 100 µM
- TGI [18]: > 100 µM
- TGI [19]: > 100 µM
- TGI [20]: > 100 µM
- TGI [21]: > 100 µM
- TGI [22]: > 100 µM
- TGI [53]: > 100 µM
- TGI [23]: > 100 µM
- TGI [24]: > 100 µM
- TGI [25]: > 100 µM
- TGI [26]: > 100 µM
- TGI [27]: > 100 µM
- TGI [28]: > 100 µM
- TGI [29]: > 100 µM
- TGI [30]: > 100 µM
- TGI [31]: > 100 µM
- TGI [58]: > 100 µM
- TGI [32]: > 100 µM
- TGI [33]: > 100 µM
- TGI [34]: > 100 µM
- TGI [55]: > 100 µM
- TGI [35]: > 100 µM
- TGI [36]: > 100 µM
- TGI [38]: > 100 µM
- TGI [59]: > 100 µM
- TGI [39]: > 100 µM
- TGI [40]: > 100 µM
- TGI [41]: > 100 µM
- TGI [42]: > 100 µM
- TGI [43]: > 100 µM
- TGI [44]: > 100 µM
- TGI [45]: > 100 µM
- TGI [46]: > 100 µM
- TGI [47]: > 100 µM
- TGI [48]: > 100 µM
- TGI [49]: > 100 µM
- TGI [56]: > 100 µM
- TGI [50]: > 100 µM
- TGI [51]: > 100 µM
